Experimental data: ChEMBL document CHEMBL3352066, “Pharmacological characterization of actin-binding (-)-doliculide” (Bioorg Med Chem, 2014)
Activity calls are given as the source filed them. The rule behind the calls is not given here.

Columns and labels:
[1] = molecular target: Actin, cytoplasmic 1 (Homo sapiens) (UniProt P60709); assay: Inhibition of actin organization in human MDA-MB-231 cells transfected with GFP-tagged human beta-actin assessed as reduction of actin stress fibers at 100 nM after 24 hrs by FRAP method; format: cell-based
MDA-MB-231 [2] = assay: Induction of apoptosis in human MDA-MB-231 cells assessed as reduction of pro-caspase9 level after 48 hrs by Western blot analysis; format: functional, cell-based
[3] = molecular target: Actin, cytoplasmic 1 (Homo sapiens) (UniProt P60709); assay: Inhibition of actin organization in human MDA-MB-231 cells transfected with GFP-tagged human beta-actin assessed as formation of actin aggregates at 300 to 500 nM after 24 hrs by FRAP method; format: cell-based
[4] = molecular target: Actin, cytoplasmic 1 (Homo sapiens) (UniProt P60709); assay: Inhibition of actin organization in human MCF7 cells transfected with GFP-tagged human beta-actin assessed as formation of actin aggregates at 300 to 500 nM after 24 hrs by FRAP method; format: cell-based
MDA-MB-231 [5] = assay: Induction of apoptosis in human MDA-MB-231 cells assessed as PARP cleavage after 48 hrs by Western blot analysis; format: functional, cell-based
MCF7 [6] = assay: Induction of apoptosis in human MCF7 cells assessed as PARP cleavage after 48 hrs by Western blot analysis; format: functional, cell-based
MDA-MB-231 [7] = assay: Antimigratory activity against human MDA-MB-231 cells up to 10 hrs; format: functional, cell-based
MCF7 [8] = assay: Antiproliferative activity against human MCF7 cells after 72 hrs by CellTiter-Blue assay; format: functional, cell-based
[9] = molecular target: Actin, cytoplasmic 1 (Homo sapiens) (UniProt P60709); assay: Inhibition of actin organization in human MCF7 cells transfected with GFP-tagged human beta-actin assessed as formation of actin aggregates at 300 nM after 30 mins by FRAP method; format: cell-based
MCF7 [10] = assay: Induction of apoptosis in human MCF7 cells after 24 hrs using propidium iodide by flow cytometry; format: functional, cell-based
[11] = molecular target: Actin, cytoplasmic 1 (Homo sapiens) (UniProt P60709); assay: Inhibition of actin organization in human MCF7 cells transfected with GFP-tagged human beta-actin assessed as reduction of g-actin monomers at 100 nM after 30 mins by FRAP method; format: cell-based
MDA-MB-231 [12] = assay: Antiproliferative activity against human MDA-MB-231 cells after 72 hrs by CellTiter-Blue assay; format: functional, cell-based
MCF7 [13] = assay: Induction of apoptosis in human MCF7 cells assessed as reduction of pro-caspase9 level after 48 hrs by Western blot analysis; format: functional, cell-based
[14] = molecular target: Actin, cytoplasmic 1 (Homo sapiens) (UniProt P60709); assay: Inhibition of actin organization in human MCF7 cells transfected with GFP-tagged human beta-actin assessed as reduction of actin stress fibers at 100 nM after 24 hrs by FRAP method; format: cell-based
MDA-MB-231 [15] = assay: Induction of apoptosis in human MDA-MB-231 cells after 24 hrs using propidium iodide by flow cytometry; format: functional, cell-based

## CC(C)[C@@H]1C[C@H](O)[C@H](C)C[C@H](C)C[C@H](C)C(=O)NCC(=O)N(C)[C@H](Cc2ccc(O)c(I)c2)C(=O)O1
[1]
  inhibition: Active
MDA-MB-231 [2]
  Activity: Dose-dependent effect
[3]
  inhibition: Active
[4]
  inhibition: Active
MDA-MB-231 [5]
  Activity: Active
MCF7 [6]
  Activity: Active
MDA-MB-231 [7]
  inhibition: Dose-dependent effect
MCF7 [8]
  inhibition: Dose-dependent effect
MCF7 [8]; MCF7, 72 h
  IC50: 93 nM
[9]
  inhibition: Active
MCF7 [10]
  Activity: Dose-dependent effect
[11]
  inhibition: Active
MDA-MB-231 [12]
  inhibition: Dose-dependent effect
MDA-MB-231 [12]; MDA-MB-231, 72 h
  IC50: 77 nM
MCF7 [13]
  Activity: Dose-dependent effect
[14]
  inhibition: Active
MDA-MB-231 [15]
  Activity: Dose-dependent effect
